US11548884B2, “Cyclic amidine compounds for the treatment of autoimmune disease” (Hoffmann-La Roche Inc., priority 2018, dated 2023)

Biological target: T1, human TLR8 (Homo sapiens, UniProt Q9NR97)
T1 sequence (Q9NR97 27-1041): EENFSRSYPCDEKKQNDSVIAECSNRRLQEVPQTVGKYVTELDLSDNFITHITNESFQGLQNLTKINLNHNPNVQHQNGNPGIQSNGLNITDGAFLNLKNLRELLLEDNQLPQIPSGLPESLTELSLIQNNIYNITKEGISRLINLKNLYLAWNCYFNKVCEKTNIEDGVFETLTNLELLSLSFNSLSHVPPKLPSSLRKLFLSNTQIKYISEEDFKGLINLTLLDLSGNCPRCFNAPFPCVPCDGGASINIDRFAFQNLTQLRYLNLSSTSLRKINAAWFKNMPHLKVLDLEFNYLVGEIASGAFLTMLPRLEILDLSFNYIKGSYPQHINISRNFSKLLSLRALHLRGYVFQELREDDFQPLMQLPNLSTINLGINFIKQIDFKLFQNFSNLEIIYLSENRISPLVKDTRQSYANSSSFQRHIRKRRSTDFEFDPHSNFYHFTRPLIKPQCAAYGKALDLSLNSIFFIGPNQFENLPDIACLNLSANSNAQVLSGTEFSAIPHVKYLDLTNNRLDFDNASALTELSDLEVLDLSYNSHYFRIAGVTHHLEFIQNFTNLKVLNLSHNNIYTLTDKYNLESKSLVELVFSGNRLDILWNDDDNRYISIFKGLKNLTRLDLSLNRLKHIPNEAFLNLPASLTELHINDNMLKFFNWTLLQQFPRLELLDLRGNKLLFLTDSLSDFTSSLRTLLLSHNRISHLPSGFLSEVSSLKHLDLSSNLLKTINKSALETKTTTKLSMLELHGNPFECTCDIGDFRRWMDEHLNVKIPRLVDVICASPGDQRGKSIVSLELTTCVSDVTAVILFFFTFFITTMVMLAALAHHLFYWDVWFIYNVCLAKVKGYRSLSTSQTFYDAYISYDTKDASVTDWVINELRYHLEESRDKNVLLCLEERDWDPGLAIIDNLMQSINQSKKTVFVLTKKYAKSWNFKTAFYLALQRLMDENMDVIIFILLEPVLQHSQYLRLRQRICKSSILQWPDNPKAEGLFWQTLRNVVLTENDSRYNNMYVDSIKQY
Test: HEK293-Blue-hTLR-8 cells assay (SEAP reporter, R848 stimulation)
Format: cell-based
Details: HEK293-Blue-hTLR8 cells, R848 ligand, 20 h incubation
Protocol: The following tests were carried out in order to determine the activity of the compounds of formula (I) in HEK293-Blue-hTLR-7/8/9 cells assay.
HEK293-Blue-hTLR-8 Cells Assay:
A stable HEK293-Blue-hTLR-8 cell line was purchased from InvivoGen (Cat. #: hkb-htlr8, San Diego, Calif., USA). These cells were originally designed for studying the stimulation of human TLR8 by monitoring the activation of NF-κB. A SEAP (secreted embryonic alkaline phosphatase) reporter gene was placed under the control of the IFN-β minimal promoter fused to five NF-κB and AP-1-binding sites. The SEAP was induced by activating NF-κB and AP-1 via stimulating HEK-Blue hTLR8 cells with TLR8 ligands. Therefore the reporter expression was declined by TLR8 antagonist under the stimulation of a ligand, such as R848, for incubation of 20 h. The cell culture supernatant SEAP reporter activity was determined using QUANTI-Blue™ kit (Cat. #: rep-qb1, Invivogen, San Diego, Calif., USA) at a wavelength of 640 nm, a detection medium that turns purple or blue in the presence of alkaline phosphatase.
HEK293-Blue-hTLR8 cells were incubated at a density of 250,000˜450,000 cells/mL in a volume of 170 μL in a 96-well plate in Dulbecco's Modified Eagle's medium (DMEM) containing 4.5 g/L glucose, 50 U/mL penicillin, […], […], 2 mM L-glutamine, 10% (v/v) heat-inactivated fetal bovine serum with addition of 20 μL test compound in a serial dilution in the presence of final DMSO at 1% and 10 μL of 60 uM R848 in above DMEM, perform incubation under 37° C. in a CO2 incubator for 20 h. Then 20 μL of the supernatant from each well was incubated with 180 μL Quanti-blue substrate solution at 37° C. for 2 h and the absorbance was read at 620˜655 nm using a spectrophotometer. The signalling pathway that TLR8 activation leads to downstream NF-κB activation has been widely accepted, and therefore similar reporter assay was modified for evaluating TLR8 antagonist.

Compound	IC50
C[C@@H]1CN(c2ccc(C#N)c3ncccc23)C[C@H](C2=Nc3cccc(N4CCNCC4)c3CN2)O1 [Example 6, 5-[(2R,6R)-2-methyl-6-(5-piperazin-1-yl-3,4-dihydroquinazolin-2-yl)morpholin-4-yl]quinoline-8-carbonitrile]	8 nM
C[C@@H]1CN(c2ccc(C#N)c3ncccc23)C[C@H](C2=Nc3ccc(N4CCNCC4)cc3CN2)O1 [Example 7, 5-[(2R,6R)-2-methyl-6-(6-piperazin-1-yl-3,4-dihydroquinazolin-2-yl)morpholin-4-yl]quinoline-8-carbonitrile]	< 3 nM
C[C@@H]1CN(c2ccc(C#N)c3ncccc23)C[C@H](C2=Nc3cc(N4CCNCC4)ccc3CN2)O1 [Example 8, 5-[(2R,6R)-2-methyl-6-(7-piperazin-1-yl-3,4-dihydroquinazolin-2-yl)morpholin-4-yl]quinoline-8-carbonitrile]	4 nM
C[C@@H]1CN(c2ccc(C#N)c3ncccc23)C[C@H](C2=Nc3c(cccc3N3CCNCC3)CN2)O1 [Example 9, 5-[(2R,6R)-2-methyl-6-(8-piperazin-1-yl-3,4-dihydroquinazolin-2-yl)morpholin-4-yl]quinoline-8-carbonitrile]	46 nM
C[C@@H]1CN(c2ccc(C#N)c3ncccc23)C[C@H](C2=Nc3cccc(N4CCN(C)CC4)c3CN2)O1 [Example 12, 5-[(2R,6R)-2-methyl-6-[5-(4-methylpiperazin-1-yl)-3,4-dihydroquinazolin-2-yl]morpholin-4-yl]quinoline-8-carbonitrile]	14 nM
C[C@@H]1CN(c2ccc(C#N)c3ncccc23)C[C@H](C2=Nc3cccc(N4CCC5(CCNC5)C4)c3CN2)O1 (stereo partly drawn) [Example 13, 5-[(2R,6R)-2-[5-(2,7-diazaspiro[4.4]nonan-2-yl)-3,4-dihydroquinazolin-2-yl]-6-methyl-morpholin-4-yl]quinoline-8-carbonitrile]	87 nM
C[C@@H]1CN(c2ccc(C#N)c3ncccc23)C[C@H](C2=Nc3cccc(C4=CCNCC4)c3CCN2)O1 [Example 16, 5-[(2R,6R)-2-methyl-6-[6-(1,2,3,6-tetrahydropyridin-4-yl)-4,5-dihydro-3H-1,3-benzodiazepin-2-yl]morpholin-4-yl]quinoline-8-carbonitrile]	191 nM
C[C@@H]1CN(c2ccc(C#N)c3ncccc23)C[C@H](C2=Nc3ccc(N4CCNCC4)cc3CCN2)O1 [Example 17, 5-[(2R,6R)-2-methyl-6-(7-piperazin-1-yl-4,5-dihydro-3H-1,3-benzodiazepin-2-yl)morpholin-4-yl]quinoline-8-carbonitrile]	148 nM
C[C@@H]1CN(c2ccc(C#N)c3ncccc23)C[C@H](C2=Nc3cccc(C4CCNCC4)c3CN2)O1 [Example 18, 5-[(2R,6R)-2-methyl-6-[5-(4-piperidyl)-3,4-dihydroquinazolin-2-yl]morpholin-4-yl]quinoline-8-carbonitrile]	71 nM
